# Source: US8940865B2, “Myocardial peptide, preparation method and uses thereof” (Dalian Zhen-Ao Pharmaceutical Co, Ltd., priority 2008, dated 2015)
# System: primary culture myocardium cell damaged by hypoxia/reoxygenation
# Experiment: Anti-hypoxia/reoxygenation injury effect on primary culture myocardium cell (MTT)
# Format: cell-based, Neonatal SD rat
# Source text: Take ventricle from Neonatal SD rat, wash with D-Hank's and cut to small pieces, digest with collagenase II to obtain the myocardium cell and fibroblast, which are cultivated with high glucose DMEM (dmem-h-15) culture medium containing 15% fetal bovine serum. Remove the fibroblast through differential adhesion and chemistry method, and inoculate myocardium cell on the 96-well plates.
# 2.1.3 Anti-Hypoxia/Reoxygenation Injury Effect of CMPC to Primary Culture Myocardium Cell.
# Cell cultivation method is the same as that in 2.1.1
# Preparation of model: Preparing the model by using the myocardium cell cultured for 48˜72 h, dividing the cell on the culture plate to following groups: Control Group, Model Group, Verapamil Group (2, 0.4, 0.08 mg/l final concentration) and CMPM Group (final concentration of 50, 10, 2, 0.4, 0.08, 0.016, 0.0032 mg/l), 3 wells for every group. Except the Control Group, the other groups are prepared by following method: placing the monolayer myocardium cell on center of culture plate on low glucose medium (containing Verapamil or CMPM with corresponding concentration), then placing the culture plate into the vacuum drying machine, filling nitrogen, and hermetically culturing, causing myocardial injury after oxygen lack for 15 hours, then being cultured for 1 hour by high glucose DMEM medium (95% atmosphere and 5% CO2) to cause reoxygention injury. Measuring the absorbance value at 540 nm by using MTT method, and the same as above, calculating the protective rate to figure out EC50.
sequence,measurement,setting,value
"KGAWSNVLRGMGGAF [CMPC, Lys-Gly-Ala-Trp-Ser-Asn-Val-Leu-Arg-Gly-Met-Gly-Gly-Ala-Phe]",% (protective rate),"Plate 1, Dosage 0.0032 mg/L",4.11%
same,A540,"Plate 1, Dosage 0.0032 mg/L",0.496 ± 0.031
same,% (protective rate),"Plate 1, Dosage 0.016 mg/L",14.69%
same,A540,"Plate 1, Dosage 0.016 mg/L",0.526 ± 0.032
same,% (protective rate),"Plate 1, Dosage 0.08 mg/L",26.09%
same,A540,"Plate 1, Dosage 0.08 mg/L",0.558 ± 0.025
same,% (protective rate),"Plate 1, Dosage 0.4 mg/L",38.95%
same,A540,"Plate 1, Dosage 0.4 mg/L",0.594 ± 0.043
same,% (protective rate),"Plate 1, Dosage 2 mg/L",28.91%
same,A540,"Plate 1, Dosage 2 mg/L",0.566 ± 0.057
same,% (protective rate),"Plate 1, Dosage 10 mg/L",17.74%
same,A540,"Plate 1, Dosage 10 mg/L",0.534 ± 0.033
same,% (protective rate),"Plate 1, Dosage 50 mg/L",9.05%
same,A540,"Plate 1, Dosage 50 mg/L",0.510 ± 0.030
same,% (protective rate),"Plate 2, Dosage 0.0032 mg/L",20.37%
same,A540,"Plate 2, Dosage 0.0032 mg/L",0.543 ± 0.052
same,% (protective rate),"Plate 2, Dosage 0.016 mg/L",22.85%
same,A540,"Plate 2, Dosage 0.016 mg/L",0.550 ± 0.024
same,% (protective rate),"Plate 2, Dosage 0.08 mg/L",48.52%
same,A540,"Plate 2, Dosage 0.08 mg/L",0.622 ± 0.047
same,% (protective rate),"Plate 2, Dosage 0.4 mg/L",40.20%
same,A540,"Plate 2, Dosage 0.4 mg/L",0.599 ± 0.032
same,% (protective rate),"Plate 2, Dosage 2 mg/L",30.99%
same,A540,"Plate 2, Dosage 2 mg/L",0.573 ± 0.052
same,% (protective rate),"Plate 2, Dosage 10 mg/L",19.36%
same,A540,"Plate 2, Dosage 10 mg/L",0.540 ± 0.026
same,% (protective rate),"Plate 2, Dosage 50 mg/L",18.12%
same,A540,"Plate 2, Dosage 50 mg/L",0.536 ± 0.036
same,% (protective rate),"Plate 3, Dosage 0.0032 mg/L",15.86%
same,A540,"Plate 3, Dosage 0.0032 mg/L",0.763 ± 0.018
same,% (protective rate),"Plate 3, Dosage 0.016 mg/L",24.20%
same,A540,"Plate 3, Dosage 0.016 mg/L",0.777 ± 0.014
same,% (protective rate),"Plate 3, Dosage 0.08 mg/L",38.05%
same,A540,"Plate 3, Dosage 0.08 mg/L",0.800 ± 0.020
same,% (protective rate),"Plate 3, Dosage 0.4 mg/L",47.29%
same,A540,"Plate 3, Dosage 0.4 mg/L",0.815 ± 0.014
same,% (protective rate),"Plate 3, Dosage 2 mg/L",64.26%
same,A540,"Plate 3, Dosage 2 mg/L",0.843 ± 0.032
same,% (protective rate),"Plate 3, Dosage 10 mg/L",34.43%
same,A540,"Plate 3, Dosage 10 mg/L",0.790 ± 0.023
same,% (protective rate),"Plate 3, Dosage 50 mg/L",14.96%
same,A540,"Plate 3, Dosage 50 mg/L",0.761 ± 0.019
